Results taken from patent US20150031760A1, “PHARMACEUTICAL COMPOSITION FOR PREVENTING OR TREATING NERVOUS SYSTEM DISORDERS COMPRISING SULFURETIN OR PHARMACEUTICALLY ACCEPTABLE SALT THEREOF” (Research and Business Foundation SUNGKYUNKWAN UNIVERSITY, priority 2010, published 2015).

Tests used:
BACE1 = experiment: Western blot, BACE1 level; format: cell-based, human; conditions: Swedish APP mutant SH-SY5Y cells; sulfuretin 2.5, 5, 10 and 20 μM for 24 h; dose-dependent (p<0.001)
Description: (§1) For the experiments shown in FIGS. 11 to 13, SH-SY5Y and stable swedish APP mutant SH-SY5Y cells were grown in DMEM supplemented with 10% heat-inactivated FBS and 0.1% penicillin/streptomycin at 37° C. in a humidified atmosphere of 5% CO2 and 95% air. Cells were fed every three days and sub-cultured once they reached 80-90% confluency in […] cell culture dishes. Amyloid beta25-35 was prepared as a 20 mM stock immediately before use and diluted in PBS to the indicated final concentration. Prior to use, amyloid beta25-35 was dissolved in sterilized distilled water and was aggregated at 37° C. for five days. The test compounds were dissolved in DMSO and the stock solutions were added directly to the culture media to a final concentration of 0.1% (v/v) DMSO.
SH-SY5Y and stable swedish APP mutant SH-SY5Y cells (1×10^6 cells/well in 6-well plates) were incubated at 37° C. with or without 20 μM amyloid beta 25-35 for 6 or 24 h, with or without sulfuretin pretreatment, and then washed and harvested with ice-cold PBS and centrifuged at 400×g for 3 minutes. […] The protein concentration was determined using a protein assay kit (Thermo Scientific). […] Protein bands were quantified by densitometric analysis using Image Gauge 4.0 software (Fujifilm, Stamford, Conn., USA). […]

[1] = Free radical scavenging ability (antioxidant effect), DPPH test; format: biochemical; conditions: 30 minutes
Description: 2,2-diphenyl-1-picrylhydrazyl (DPPH) was dissolved in 99.5% ethanol to a concentration of 0.1 mM. Sulfuretin was dissolved and diluted in ethanol to concentrations of 0.1, 1, 5, 10, 25, 50 and 100 μg/ml. 10 μl of the sample was added to 90 μl of DPPH and admixed several times with a pipette, and the mixture was incubated at room temperature for 30 minutes, and the absorbance at 517 nm was measured.

SH-SY5Y cells = experiment: MTT assay, amyloid beta25-35-induced cell death; format: cell-based, human; conditions: pretreated with sulfuretin at 2.5, 5, 10 and 20 μM for 30 minutes, then 20 μM amyloid beta25-35 for 24 hours (p<0.05 and p<0.001)
Description: as §1
First of all, MTT assay was performed to determine the neuroprotective effects of sulfuretin on amyloid beta25-35-induced cell death. […] The dark-blue formazan crystals formed in intact cells were dissolved in DMSO, and the absorbance at 540 nm was measured with a microplate reader (SpectraMax 250, Molecular Device, Sunnyvale, Calif., USA). The results were expressed as the percentage of MIT reduction relative to the absorbance of control cells.

PARP = experiment: Western blot, PARP expression; format: cell-based, human; conditions: SH-SY5Y cells
Description: The incubator was maintained at a temperature of 37° C., and a mixed gas of 95% air and 5% CO2 was continuously supplied thereto to provide suitable conditions for cell culture. The cells were cultured in a 6-well plate or a 96-well plate at each of densities of 1×10^6 and 2×10^4 cells/well 24 hours before the experiment. […] Sulfuretin was used in ethanol and used at a final concentration of 0.1% or less.
In order to identify the effect of sulfuretin on the expression of proteins related to dementia, Alzheimer's disease, Parkinson's disease and strokes, a Western blot test was carried out.
After 24 hours, the supernatant of each well was collected and centrifuged at 400 g for 3 minutes, and the cells were washed with cold PBS and lysed with 100 μl of T-PER lysis buffer (Thermo, USA) for 30 minutes. The lysates were centrifuged at 10000 g at 4° C. for 15 minutes, and the supernatants were stored at […] until use as test samples. Proteins were quantitatively analyzed using a BCA assay kit (Thermo, USA) and separated within 8.5-12% SDS gel and then transferred to PVDF membranes. To examine the expression of the proteins, the development of fluorescence was analyzed by enhanced chemiluminescence (ECL). Specifically, the membrane was blocked with 5% skimmed non-fat milk for 1 hour and labeled with the primary antibodies, PARP, caspase-3, phospho-p38, phospho-JNK and β-actin at 4° C. overnight. Then, the membrane was washed three times with Tris-tween buffered saline (TTBS), and then labeled with horseradish peroxidase (HRP)-conjugated anti-rabbit and anti-mouse secondary antibodies at room temperature for 1 hour. Then, the membrane was washed five times with TTBS for 10 minutes. The washed film was developed by ECL using x-ray films, and concentrations were quantitatively analyzed using quantitative analysis program (Fujifilm, Japan).

In the case of `O=C1/C(=C/c2ccc(O)c(O)c2)Oc2cc(O)ccc21` [sulfuretin], the BACE1 level (BACE1) is reported as “significantly inhibited”, the “free radical scavenging ability (inhibition)” value ([1]; sulfuretin 0.1 μg/ml) is reported as at least 10% and the “free radical scavenging ability (inhibition)” value ([1]; sulfuretin 1 μg/ml) is reported as at least 18%. For the same molecule, the “free radical scavenging ability (inhibition)” value ([1]; sulfuretin 5 μg/ml) was at least 58%, the “free radical scavenging ability (inhibition)” value ([1]; sulfuretin 10 μg/ml) was at least 70% and the “free radical scavenging ability (inhibition)” value ([1]; sulfuretin 25 μg/ml) was at least 71%. The “free radical scavenging ability (inhibition)” value ([1]; sulfuretin 50 μg/ml) was at least 73%, the “free radical scavenging ability (inhibition)” value ([1]; sulfuretin 100 μg/ml) was at least 75% and the “cell viability (MTT reduction)” value (SH-SY5Y cells) was “significantly increased”. The PARP expression (PARP; hydrogen peroxide + sulfuretin 0.1 μg/ml) was at least 70%, the PARP expression (PARP; hydrogen peroxide + sulfuretin 0.5 μg/ml) was at least 92% and the PARP expression (PARP; hydrogen peroxide + sulfuretin 1 μg/ml) was at least 99%.
